Reference: US11723890B2, “Methods of treatment using an mTORC1 modulator” (Navitor Pharmaceuticals, Inc., priority 2019, dated 2023)

Columns and labels:
[1] = system: rat; experiment: 14-day Q3D oral toxicology study in rats; assay type: in vivo
Procedure: (§1) In rats administered 160, 500, or 1000 mg/kg PO every 3 days (Q3D) for 14 days (5 doses total), the no-observed-adverse-effect level (NOAEL) was 160 mg/kg.
(§2) Factors Influencing Starting and Stopping Dose for compound A: The proposed starting dose of compound A (150 mg) was based on considering the NOAEL dose of compound A in the most sensitive species (160 mg/kg dosed Q3D for 14 days in rat), determining the human equivalent dose (HED) based on the body surface area difference between the two species (˜26 mg/kg, or ˜1560 mg for a 60 kg human), followed by applying a safety factor of 10 to yield the maximum recommended starting dose (MRSD). Based on the above considerations, the starting dose of compound A in the present study was 150 mg. Based on an integrated assessment of nonclinical findings with compound A, the planned maximum dose for compound A in the first-time-in-humans (FTIH) study was 2400 mg. Extrapolated on the basis of body surface area, the 2400 mg dose is equivalent to 247 mg/kg in rats and 123 mg/kg in monkeys. […] At 160 mg/kg in monkeys, the only effect was a slight decrease in heart rate (approximately 18%, or approximately 30 beats per minute, compared with vehicle).
(§3) In addition, the present clinical study included frequent clinical laboratory tests.

[2] = 14-day Q3D oral toxicology study in rats; assay type: in vivo, rat; conditions: rat, in vivo
Procedure: as §1, §2, §3

[3] = system: qEEG and event-related potential (ERP); experiment: Example 3: qEEG and event-related potential pharmacodynamics; assay type: in vivo, human; conditions: healthy males
Source text: Pharmacodynamic Endpoints: The primary pharmacodynamic endpoint was the change from baseline in the difference between the compound A group and the placebo group on qEEG parameters, including:
Fractal and oscillatory EEG band amplitudes
Fractal and oscillatory EEG band intra- and interhemispheric coherences
The secondary pharmacodynamic endpoints were the changes from baseline in the difference between the compound A group and the placebo group in ERP parameters, including: • Mismatch negativity (MMN) amplitude and latency • P300a amplitude and latency • P300b amplitude and latency • N100 amplitude and latency • N200 amplitude and latency • P200 amplitude and latency • Auditory steady-state response (ASSR) peak-to-peak amplitude • ASSR event-related spectral perturbation (ERSP) • ASSR inter-trial phase coherence (ITPC) • Mean time scores of qEEG parallel factor analysis (PARAFAC) atoms endpoints
Pharmacodynamics were assessed via qEEG and event-related potential (ERP). Frequent PK sampling was included in the study to evaluate the PK of two doses of compound A given approximately 48 hours apart. A PK/PD model was developed that measures qEEG and ERP changes as a function of plasma concentration of compound A as well as determines whether there are any PK/PD differences between Dose 1 and Dose 2 effects.

[4] = system: healthy volunteers; experiment: Example 1 Part A: safety and tolerability of single ascending doses in healthy volunteers
Source text: Up to approximately 48 healthy volunteers were randomly assigned to double-blind treatment. […] The in-house period was 6 days/5 nights. The duration of each subject's participation was up to 39 days, including screen/washout and follow-up.
The study included standard safety and tolerability assessments—e.g., physical, neurological, and psychiatric examinations, vital signs, oral temperature, respiration rate, weight, 12-lead paper electrocardiograms (pECGs), dECGs, clinical laboratory tests, monitoring of adverse events (AEs) and concomitant medications, and, in Part A of the study, cardiovascular (CV) telemetry and safety EEGs.
Subjects were required to abstain from eating or drinking for two hours prior to and after dosing. • Subjects randomized to receive placebo (purified water and Flavor Sweet-SF™): Single dose placebo was administered orally as a solution on Day 1. Subjects were required to abstain from eating or drinking for two hours prior to and after dosing.
An AE is any unfavorable and unintended sign (including an abnormal laboratory finding), symptom, or disease temporally associated with the use of a medical treatment or procedure, whether or not considered related to the medical treatment or procedure. […] An AE term is a unique representation of a specific event used for medical documentation and scientific analyses.
A TEAE is an AE that either commenced following initiation of study treatment or was present prior to study treatment but increased in frequency or severity following initiation of study treatment.

[5] = system: nonhuman primate model of anxiolytic/depressive behavioral responses; experiment: Nonhuman primate model of anxiolytic/depressive behavioral responses; assay type: in vivo; conditions: versus ketamine
Source text: Compound A [(S)-2-amino-5,5-difluoro-4,4-dimethylpentanoic acid] is a novel, orally bioavailable, specific, small molecule that activates mTORC1 pathway signaling in the brain, including those centers responsible for mood.

[6] = system: healthy male volunteers; experiment: Example 3: safety and tolerability of two sequential doses in healthy male volunteers; assay type: in vivo, human; conditions: healthy male subjects; two doses 2400 mg 48 hours apart
Procedure: Safety Endpoints: The safety endpoint was to assess the safety and tolerability of sequential doses of compound A vs. placebo in healthy male volunteers, as assessed by clinical laboratory parameters, physical, neurologic, and psychiatric examinations, vital signs, ECGs, EEGs, and adverse events.
This study was designed to evaluate the safety, tolerability, pharmacodynamics, and pharmacokinetics of two sequential doses of 2400 mg compound A (separated by 2 days), compared with placebo, in 24 healthy adult males (12 receiving compound A, 12 receiving placebo).

[7] = system: cynomolgus monkey; experiment: Single oral dose toxicology study in cynomolgus monkey; assay type: in vivo
Procedure: Nonclinical toxicology studies have been performed with compound A in the rat and cynomolgus monkey. Adverse effects were not observed after single oral doses of up to 500 mg/kg in rat and up to 2000 mg/kg in cynomolgus monkey.

[8] = 2400 mg, not evident in placebo group

CC(C)(C[C@H](N)C(=O)O)C(F)F [Compound A, (S)-2-amino-5,5-difluoro-4,4-dimethylpentanoic acid]
human equivalent dose (HED) of rat NOAEL for a 60 kg human ([1]; based on body surface area difference, 60 kg human): ~1560 mg
other findings, not considered adverse ([1]; rat, in vivo, po): slightly decreased lymphocyte, monocyte, and neutrophil counts
findings at high doses ([1]; rat, in vivo, po, 500 mg/kg): lymphoid atrophy and decreased leucocyte counts
adverse effects at 1000 mg/kg ([1]; rat, in vivo, po, 1000 mg/kg): regenerative anemia in one male, considered likely an episode of gastrointestinal (GI) bleeding, and hepatocellular injury in one male
human equivalent dose of rat NOAEL at 14 days ([2]; oral, 160 mg/kg, based on body surface area difference, read-out: human equivalent dose (HED) of rat NOAEL): ~26 mg/kg
NOAEL at 14 days ([2]; rats, 160, 500 or 1000 mg/kg PO Q3D for 14 days (5 doses), read-out: no-observed-adverse-effect level (NOAEL)): 160 mg/kg
time to EEG activation after the first and second doses ([3]; 2400 mg Day 1 and Day 3): ≤ 1 h
ASSR high-frequency (harmonic) resonances [3, 8]: increased
peak latency of N100, P200, P300A components in auditory oddball tasks [3, 8]: reduced
changes in low- and high-frequency EEG bands ([3]; 2400 mg, qEEG): dose-dependent decreases in low-frequency EEG bands (delta, theta) and increases in high-frequency EEG bands (gamma)
delta and theta band amplitudes ([3]; 2400 mg, qEEG): significantly decreased
high-frequency band amplitudes (higher beta and gamma bands) ([3]; 2400 mg, qEEG): increased
qEEG band coherences ([3]; 2400 mg, qEEG): increased coherence in alpha, beta, and gamma bands
theta-beta ratios ([3]; 2400 mg, qEEG): decreased
alpha band amplitudes ([3]; 2400 mg, qEEG, within 1 hour after dosing): decreased
neural activation on qEEG ([3]; single dose 2400 mg, versus placebo): rapid and significant neural activation
Number of subjects with ≥1 TEAE ([4]; all doses Total, N = 36): 13 (36.1) n (%)
TEAE: Abdominal pain ([4]; all doses Total, N = 36): 1 n (%)
TEAE: Abdominal pain lower ([4]; all doses Total, N = 36): 1 n (%)
TEAE: Blood creatine phosphokinase increased ([4]; all doses Total, N = 36): 1 n (%)
TEAE: Dermatitis contact ([4]; all doses Total, N = 36): 3 n (%)
TEAE: Diarrhea ([4]; all doses Total, N = 36): 1 n (%)
TEAE: Dizziness ([4]; all doses Total, N = 36): 4 n (%)
TEAE: Dry mouth ([4]; all doses Total, N = 36): 1 n (%)
TEAE: Headache ([4]; all doses Total, N = 36): 2 n (%)
TEAE: Hot flush ([4]; all doses Total, N = 36): 1 n (%)
TEAE: Lipase increased ([4]; all doses Total, N = 36): 1 n (%)
TEAE: Nausea ([4]; all doses Total, N = 36): 3 n (%)
TEAE: Presyncope ([4]; all doses Total, N = 36): 1 n (%)
TEAE: Somnolence ([4]; all doses Total, N = 36): 1 n (%)
TEAE: Vomiting ([4]; all doses Total, N = 36): 1 n (%)
Total number of TEAEs ([4]; all doses Total, N = 36): 22 n (%)
Number of subjects with ≥1 TEAE ([4]; single oral 150 mg, N = 6): 2 (33.3) n (%)
TEAE: Abdominal pain lower ([4]; single oral 150 mg, N = 6): 1 n (%)
TEAE: Dizziness ([4]; single oral 150 mg, N = 6): 1 n (%)
Total number of TEAEs ([4]; single oral 150 mg, N = 6): 3 n (%)
Number of subjects with ≥1 TEAE ([4]; single oral 300 mg, N = 6): 2 (33.3) n (%)
TEAE: Blood creatine phosphokinase increased ([4]; single oral 300 mg, N = 6): 1 n (%)
TEAE: Lipase increased ([4]; single oral 300 mg, N = 6): 1 n (%)
Total number of TEAEs ([4]; single oral 300 mg, N = 6): 2 n (%)
Number of subjects with ≥1 TEAE ([4]; single oral 600 mg, N = 6): 1 (16.7) n (%)
TEAE: Dizziness ([4]; single oral 600 mg, N = 6): 1 n (%)
TEAE: Presyncope ([4]; single oral 600 mg, N = 6): 1 n (%)
Total number of TEAEs ([4]; single oral 600 mg, N = 6): 1 n (%)
Number of subjects with ≥1 TEAE ([4]; single oral 1000 mg, N = 6): 1 (16.7) n (%)
TEAE: Dizziness ([4]; single oral 1000 mg, N = 6): 1 n (%)
Total number of TEAEs ([4]; single oral 1000 mg, N = 6): 1 n (%)
Number of subjects with ≥1 TEAE ([4]; single oral 1600 mg, N = 6): 4 (66.7) n (%)
TEAE: Abdominal pain ([4]; single oral 1600 mg, N = 6): 1 n (%)
TEAE: Dermatitis contact ([4]; single oral 1600 mg, N = 6): 2 n (%)
TEAE: Diarrhea ([4]; single oral 1600 mg, N = 6): 1 n (%)
TEAE: Dizziness ([4]; single oral 1600 mg, N = 6): 2 n (%)
TEAE: Dry mouth ([4]; single oral 1600 mg, N = 6): 1 n (%)
TEAE: Headache ([4]; single oral 1600 mg, N = 6): 1 n (%)
TEAE: Nausea ([4]; single oral 1600 mg, N = 6): 1 n (%)
TEAE: Somnolence ([4]; single oral 1600 mg, N = 6): 1 n (%)
Total number of TEAEs ([4]; single oral 1600 mg, N = 6): 10 n (%)
Number of subjects with ≥1 TEAE ([4]; single oral 2400 mg, N = 6): 3 (50.0) n (%)
TEAE: Dermatitis contact ([4]; single oral 2400 mg, N = 6): 1 n (%)
TEAE: Headache ([4]; single oral 2400 mg, N = 6): 1 n (%)
TEAE: Nausea ([4]; single oral 2400 mg, N = 6): 2 n (%)
TEAE: Vomiting ([4]; single oral 2400 mg, N = 6): 1 n (%)
Total number of TEAEs ([4]; single oral 2400 mg, N = 6): 5 n (%)
Vitals, labs, and ECG findings ([4]; single oral doses 150-2400 mg): unremarkable
maximally tolerated dose ([4]; single oral doses 150-2400 mg): not reached
safety and tolerability ([4]; single oral doses 150-2400 mg): well tolerated, with no serious adverse events, and no discontinuations due to adverse events
severity of adverse events ([4]; single oral doses 150-2400 mg): mild
safety and tolerability ([4]; single oral doses 150-2400 mg, listed as compound A): generally safe and well tolerated
BPRS+ and CADSS scores ([4]; single oral doses 150-2400 mg, vs placebo): comparable as between the treatment groups
pharmacological activity [5]: comparable to that of ketamine
deaths, SAEs, discontinuations due to TEAEs, Grade 2 or 3 TEAEs [6]: no deaths or other SAEs, discontinuations due to TEAEs, or moderate (Grade 2) or severe (Grade 3) TEAEs
dissociative effects [6]: No dissociative effects were reported
incidence of TEAEs [6]: 8.3%
incidence of drug-related TEAEs [6]: 0%
proconvulsant activity on safety EEGs [6]: no evidence
safety and tolerability [6]: generally safe and well tolerated
severity of TEAEs [6]: mild (Grade 1)
single oral dose up to which adverse effects were not observed [7]: up to 2000 mg/kg
